Data as given in patent publication US8022036B2, “Use of thymosin alpha 1 for the treatment of immunological diseases” (Sigma-Tau Industrie Farmaceutiche Riunite S.p.A., priority 2006, dated 2011).
No end group written: not given here.

Experiments:
splenic CD4+ T cells = assay: Th1/T reg priming in vitro of splenic CD4+ T cells by Aspergillus-pulsed DCs (ELISPOT, flow cytometry); type: cell-based, mouse
Procedure: IDO expression and functional activity were assessed as described in Nat. Immunol. 2002; 3:1097-1101. Generation, purification and activity of T reg cells Splenic CD4+ T-cells were cocultured with conidia-pulsed DCs for 5 days […] before flow cytometry or ELISPOT assay. 1-MT (Sigma-Aldrich) was used at 2 μM. CD4+CD25+ and CD4+CD25− cells (>90% pure on FACS analysis) were separated by magnetic cell sorting from lung and TLN (J. Immunol. 2006; 176:1712-1723). For T reg cell inhibition, 5×10^4 TLN T reg cells were added to 3×10^5 CD4+CD25− cells, both from transplanted mice, stimulated with 3×10^4 autologous Aspergillus conidia-pulsed spDCs or with or 1.5×10^5 allogeneic spDCs from naïve donor mice for five days before H^3-thymidine labeling. Purified peritoneal CD 11b+Gr−1+PMN (>98% pure on FACS analysis) (2×10^6) were exposed to resting conidia in the presence of 4×10^5 CD4+CD25+ for 60 min for oxidant production or 24 hours for cytokine production (J. Immunol. 2006; 176:1712-1723).
Cytokine content was assessed by enzyme-linked immunosorbent assays (Endogen Human Elisa Kits, R&D Systems and Euroclone, Milan, Italy). AID EliSpot assay kits (Amplimedical, Buttigliera Alta, Turin, Italy) were used on purified splenic CD4+ Tcells cocultured with conidia-pulsed DCs for 5 days to enumerate cytokine-producing cells (Blood. 2003; 102:3807-3814). 1-MT was used at 2 μM.
(A) Frequency of IFN-γ-/IL-10-producing splenic CD4+ T cells activated by Aspergillus-pulsed Thymosin alpha 1-treated GM-DCs or FL-DCs. 1-MT was present in selected cultures. Plates were read with the AID-EliSpot Reader System (Amplimedical). Values are means±SE per 10^6 cells of samples from 3-5 experiments, calculated using replicates of serial twofold dilutions of cells. (*) P<0.05, conidia-exposed versus unexposed cells; (**) P<0.05, thymosin-exposed versus unexposed cells.
(B) Phenotypic analysis of CD4+ cells cultured alone (−) or as in (A). Numbers represent the percentage of double positive cells.

[1] = tested on: lung homogenates, TLN CD4+ T cells; assay: Inflammatory/Th/T reg responses in lung and TLN of infected HSCT mice given DCs (ELISA, ELISPOT, RT-PCR, flow cytometry); type: in vivo, mouse
Procedure: Mice received twice intraperitoneal injections of DCs, at weekly interval, starting a day after HSCT and infected a week after the last DC administration. Three days later, lung homogenates, CD4+ T cells (>98% on FACS analysis), CD4+CD25− (>98%) or CD4+CD25+ (>82%) purified with the specific Miltenyi Biotec isolation kits were assessed for pattern of pro- and anti-inflammatory (TNF-a/IL-10 in lung homogenates), Th1 (IFN-γ) or Th2 (IL-4) cytokine production by CD4+ cells stimulated with Aspergillus-pulsed DCs (Blood. 2003; 102:3807-3814) frequency of CD25+ IL-10^+ TGF-β+ T reg cells, lymphoproliferation and gene expression by RT-PCR. For proliferation, TLN CD4+ T lymphocytes were plated (10^5 cells/well) with 10^5 cells/well irradiated allogeneic splenocytes or autologous spDCs pulsed with conidia or 10 μg/mL Con A for five days before H^3-thymidine labeling.
RNA extraction, synthesis and PCR of cDNA, sequences of gene-specific primers, annealing temperatures and amplification cycles were done as described in J. Immunol. 2006; 176:1712-1723). Amplification efficiencies were validated and normalized against GAPDH.
(A) TNF-a/IL-10 levels were assessed by specific ELISA in lung homogenates and IFN-γ/IL-4 production were assessed in TLN CD4+ T cells cocultured with Aspergillus-pulsed DCs. Bars indicate standard errors. TLN CD4+CD25+ T cells producing IL-10 or TGF-β were numbered by ELISPOT assay. Results are expressed as the mean number of cytokine-producing cells (±SE) per 2×10^5 cells. *P<0.05, DC-treated versus untreated mice. (**) P<0.05, Thymosin alpha 1-treated DCs versus untreated DCs.
(B) Total RNA was extracted from freshly purified CD4+ T cells from TLN of treated or untreated (None) mice. The expressions of the different mRNAs in each cell population were determined by RT-PCR. The expression of a housekeeping gene, Gapdh mRNA, was used as an internal control. The data shown are representative results of three experiments.
(C) Phenotypic analysis of cells isolated from lung or TLN of mice infused or not (None) with different types of DCs, (−) indicating uninfected, untreated mice. CD4+ T cells were sequentially reacted with PE-conjugated anti-CD25 (PC61) and FITC-conjugated anti-CD69 (clone H1.2F3) mAbs. Numbers represent the percentage of positive cells over total cells analyzed. Control staining of cells with irrelevant Ab was used to obtain background fluorescence values. Histograms are representative of one out of four independent experiments.

[2] = tested on: human non-small cell lung cancer (NSCLC) cells; conditions: subcutaneous administration, nude mice; cited from earlier work
[3] = tested on: methylcholanthrene-induced fibrosarcoma; conditions: mice; cited from earlier work
[4] = mice given Thymosin alpha 1-treated GM-DCs

## Thymosin alpha 1: naturally occurring thymic peptide; supplied as purified, endotoxin-free sterile lyophilized acetylated polypeptide from SciClone Pharmaceuticals (Ac-SDAAVDTSSEITTKDLKEKKEVVEEAEN; UniProt P06454 2-29, looked up)
Splenic CD4+ T cells; Aspergillus-pulsed FL-DCs, 5 days coculture
  priming for IL-10-producing cells by FL-DCs: increased priming
Splenic CD4+ T cells; Aspergillus-pulsed GM-DCs, 5 days coculture
  priming for IFN-γ-/IL-10-producing CD4+ T cells by GM-DCs: increased priming
Splenic CD4+ T cells; cultured with Thymosin alpha 1-induced DCs
  CD4+CD25+ T cells positive for intracellular Foxp3 and surface CTLA-4: a significant proportion of the CD4+CD25+ T cells stained positive for intracellular Foxp3 and surface CTLA-4
[1]; Thymosin alpha 1-treated FL-DCs
  compartmentalization of induced T reg (lungs vs TLN), FL-DCs: the opposite was true
[1]; Thymosin alpha 1-treated GM-DCs, compared with TNF-a high, IL-10 low in untreated or GM-DC mice
  TNF-a/IL-10 production in lung homogenates: the reverse being true
[1]; Thymosin alpha 1 treated GM-DCs
  compartmentalization of induced T reg (lungs vs TLN), GM-DCs: induced T reg in the lungs more than TLN
[1]; [4]
  CD62L marker on CD25+ T cells: stained positive
  Foxp3 mRNA in TLN CD4+ T cells (RT-PCR): expressed
  IFN-γ production by TLN CD4+ T cells: higher
  IL-4 production by TLN CD4+ T cells: lower
[1]; mice given Thymosin alpha 1-treated GM-DCs or FL-DCs
  CD69 activation marker on CD4+CD25+ T cells: did not stain positive
[2]
  tumor volume: significantly decreased tumor volume
[3]
  pulmonary metastases: reduced
